In patent US12673946B2, “Pyrimidin-4(3H)-one derivatives as TRPV4 antagonists” (RaQualia Pharma Inc., priority 2020, dated 2026) one finds IC50 data, which are given here for 36 compounds.

This assay deals with T1, human TRPV4 (Homo sapiens, UniProt Q9HBA0).
T1 construct: host or cells: tetracycline-inducible Flp-In T-REx 293 cells
Description: Hypotonicity-induced Ca2+ influx (Fluo-4, FDSS). It is filed as cell-based. The essentials: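 Flp-In T-REx 293 cells with tetracycline-induced human TRPV4, loaded with Fluo-4 for 60 min at 25 °C. Compound added 5 min before hypotonic mannitol/CaCl2 solution. Ca2+ signal recorded for 4.5 min on FDSS.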

The mark [1] stands for this setting: Flp-In T-REx 293 cells expressing human TRPV4, examples listed under heading 'Human IC50<50 nM'.
Where [2] appears, read: Flp-In T-REx 293 cells stably expressing human TRPV4, compounds listed by potency bin (<10 nM Tables 96-1/96-2, <3 nM Table 97).

Molecules are shown by their SMILES. pIC50: −log10 of the molar value.

T1 sequence (Q9HBA0 whole entry): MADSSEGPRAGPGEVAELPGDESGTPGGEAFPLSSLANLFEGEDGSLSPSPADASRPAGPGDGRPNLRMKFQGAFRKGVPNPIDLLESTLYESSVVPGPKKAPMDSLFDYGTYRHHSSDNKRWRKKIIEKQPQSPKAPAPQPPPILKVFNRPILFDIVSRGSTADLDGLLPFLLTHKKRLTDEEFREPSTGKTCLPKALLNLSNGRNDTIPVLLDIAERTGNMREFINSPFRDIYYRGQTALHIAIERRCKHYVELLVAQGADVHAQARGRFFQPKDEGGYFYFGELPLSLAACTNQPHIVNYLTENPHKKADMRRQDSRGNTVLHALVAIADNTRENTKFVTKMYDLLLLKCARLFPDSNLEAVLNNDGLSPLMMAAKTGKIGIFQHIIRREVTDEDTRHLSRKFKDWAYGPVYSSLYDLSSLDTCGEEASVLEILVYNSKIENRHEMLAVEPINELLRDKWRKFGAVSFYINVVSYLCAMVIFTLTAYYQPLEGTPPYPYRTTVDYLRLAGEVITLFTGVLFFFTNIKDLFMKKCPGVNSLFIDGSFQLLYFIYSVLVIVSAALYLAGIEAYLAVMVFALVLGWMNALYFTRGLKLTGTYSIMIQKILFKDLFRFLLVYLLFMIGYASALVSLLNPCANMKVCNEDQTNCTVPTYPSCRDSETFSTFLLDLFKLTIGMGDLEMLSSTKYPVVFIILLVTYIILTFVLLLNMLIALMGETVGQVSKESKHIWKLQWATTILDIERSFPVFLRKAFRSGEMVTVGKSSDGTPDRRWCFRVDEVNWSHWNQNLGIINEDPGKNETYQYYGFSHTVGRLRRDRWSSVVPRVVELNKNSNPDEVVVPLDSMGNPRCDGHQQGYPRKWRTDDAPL

Usually pIC50 stands for the IC50 on a negative log10 scale, so that one unit is a factor of ten. Consider `O=C(C(O)c1cccc(-c2cccc(F)c2)n1)N1CCc2nc(C3(c4ccccc4)CC3)[nH]c(=O)c2C1` (stereo not drawn) [48-10], for which the negative logarithm of the IC50 (pIC50) under setting [1] is > 7.30.

For the compound `O=C(C(O)c1cncc(-c2cccc(F)c2)c1)N1CCc2nc(C3(c4ccccc4)CC3)[nH]c(=O)c2C1` (stereo not drawn) [48-11], the pIC50 under setting [1] is > 7.30. For the compound `O=C(C(O)c1cccc(-c2cnc3ccccc3c2)c1)N1CCCc2nc(C3(c4ccccc4)CC3)[nH]c(=O)c2C1` (stereo not drawn) [49-1], the pIC50 runs as follows: under setting [1], > 7.30; under setting [2], > 8.00.

`O=C(C(O)c1cccc(-c2cc(C(F)(F)F)cc(C(F)(F)F)c2)c1)N1CCCc2nc(C3(c4ccccc4)CC3)[nH]c(=O)c2C1` (stereo not drawn) [49-2]: the pIC50 is > 7.30 under setting [1] and > 8.00 under setting [2]. `O=C(C(O)c1cccc(-c2ccc(Cl)cc2)c1)N1CCCc2nc(C3(c4ccccc4)CC3)[nH]c(=O)c2C1` (stereo not drawn) [49-3]: the pIC50 by setting is: under setting [1], > 7.30; under setting [2], > 8.00. In the same order, the values of `O=C(C(O)c1cccc(-c2cc(F)cc(Cl)c2)c1)N1CCCc2nc(C3(c4ccccc4)CC3)[nH]c(=O)c2C1` (stereo not drawn) [49-4] are > 7.30 and > 8.00.

On to `O=C(C(O)c1cccc(-c2ccnc(C(F)(F)F)c2)c1)N1CCCc2nc(C3(c4ccccc4)CC3)[nH]c(=O)c2C1` (stereo not drawn) [49-5], for which the pIC50 is, setting by setting: under setting [1], > 7.30; under setting [2], > 8.00. Consider `O=C(C(O)c1cccc(-c2cccc(Cl)c2)c1)N1CCCc2nc(C3(c4ccccc4)CC3)[nH]c(=O)c2C1` (stereo not drawn) [49-6], for which the pIC50 is, setting by setting: under setting [1], > 7.30; under setting [2], > 8.00. For `O=C(C(O)c1cccc(-c2cccc(OC(F)(F)F)c2)c1)N1CCCc2nc(C3(c4ccccc4)CC3)[nH]c(=O)c2C1` (stereo not drawn) [49-7] the same measures were > 7.30 and > 8.00. In the case of `O=C(C(O)c1cccc(-c2cccc(C(F)(F)F)c2)c1)N1CCCc2nc(C3(c4ccccc4)CC3)[nH]c(=O)c2C1` (stereo not drawn) [49-8], the pIC50 is > 7.30 under setting [1] and > 8.00 under setting [2]. For the compound `O=C(C(O)c1cccc(-c2cccc(F)c2)c1)N1CCCc2nc(C3(c4ccccc4)CC3)[nH]c(=O)c2C1` (stereo not drawn) [49-9], the pIC50 was > 7.30 under setting [1] and > 8.00 under setting [2]. In the same order, the values of `CC(C)(C)c1cccc(-c2cccc(C(O)C(=O)N3CCCc4nc(C5(c6ccccc6)CC5)[nH]c(=O)c4C3)c2)c1` (stereo not drawn) [49-10] are > 7.30 and > 8.00. On to `O=C(C(O)c1cccc(-c2ccc(OC(F)(F)F)cc2)c1)N1CCCc2nc(C3(c4ccccc4)CC3)[nH]c(=O)c2C1` (stereo not drawn) [49-11], for which the negative-log IC50 (pIC50) by setting is: under setting [1], > 7.30; under setting [2], > 8.00. For `O=C([C@H](O)c1cccc(-c2cccc(F)c2)c1)N1CCCc2nc(C3(c4ccccc4)CC3)[nH]c(=O)c2C1` [49-12] the same measures were > 7.30 and > 8.00. With `O=C([C@H](O)c1cccc(-c2cccc(C(F)(F)F)c2)c1)N1CCCc2nc(C3(c4ccccc4)CC3)[nH]c(=O)c2C1` [49-13], the pIC50 under setting [1] is > 7.30 and the pIC50 under setting [2] is > 8.52.

As to `O=C([C@H](O)c1cccc(-c2cccc(OC(F)(F)F)c2)c1)N1CCCc2nc(C3(c4ccccc4)CC3)[nH]c(=O)c2C1` [49-14], the negative-log IC50 (pIC50) under setting [1] is > 7.30 and the pIC50 under setting [2] is > 8.52. Take `O=C([C@H](O)c1cccc(-c2cccc(Cl)c2)c1)N1CCCc2nc(C3(c4ccccc4)CC3)[nH]c(=O)c2C1` [49-15]: the pIC50 under setting [1] was > 7.30 and the pIC50 under setting [2] is > 8.52. Turning to `CC(C)(C)c1cccc(-c2cccc([C@@H](O)C(=O)N3CCCc4nc(C5(c6ccccc6)CC5)[nH]c(=O)c4C3)c2)c1` [49-16], the pIC50 is, setting by setting: under setting [1], > 7.30; under setting [2], > 8.52. In the same order, the values of `O=C([C@H](O)c1cccc(-c2ccnc(C(F)(F)F)c2)c1)N1CCCc2nc(C3(c4ccccc4)CC3)[nH]c(=O)c2C1` [49-17] are > 7.30 and > 8.52. For `O=C([C@H](O)c1cccc(-c2ccc(Cl)cc2)c1)N1CCCc2nc(C3(c4ccccc4)CC3)[nH]c(=O)c2C1` [49-18] the same measures were > 7.30 and > 8.52. `O=C([C@H](O)c1cccc(-c2cncc(C(F)(F)F)c2)c1)N1CCCc2nc(C3(c4ccccc4)CC3)[nH]c(=O)c2C1` [49-21]: under setting [1], the pIC50 was > 7.30.

On to `O=C([C@H](O)c1cccc(-c2cccc(C(F)(F)F)n2)c1)N1CCCc2nc(C3(c4ccccc4)CC3)[nH]c(=O)c2C1` [49-22], for which the pIC50 runs as follows: under setting [1], > 7.30; under setting [2], > 8.52. Regarding `O=C([C@H](O)c1cccc(-c2csc3ccccc23)c1)N1CCCc2nc(C3(c4ccccc4)CC3)[nH]c(=O)c2C1` [49-24], the pIC50 reads like this: under setting [1], > 7.30; under setting [2], > 8.00. Consider `O=C([C@H](O)c1cccc(-c2cc3ccccc3o2)c1)N1CCCc2nc(C3(c4ccccc4)CC3)[nH]c(=O)c2C1` [49-25], for which the pIC50 by setting is: under setting [1], > 7.30; under setting [2], > 8.52. Regarding `O=C([C@H](O)c1cccc(-c2cccc(OCc3ccccc3)c2)c1)N1CCCc2nc(C3(c4ccccc4)CC3)[nH]c(=O)c2C1` [49-26], the pIC50 was > 7.30 under setting [1] and > 8.00 under setting [2]. For `O=C([C@H](O)c1cccc(-c2cc(F)cc(Cl)c2)c1)N1CCCc2nc(C3(c4ccccc4)CC3)[nH]c(=O)c2C1` [49-27] the same measures were > 7.30 and > 8.52.

Take `O=C([C@H](O)c1cccc(-c2cc3ccccc3s2)c1)N1CCCc2nc(C3(c4ccccc4)CC3)[nH]c(=O)c2C1` [49-28]: the pIC50 reads like this: under setting [1], > 7.30; under setting [2], > 8.52.

Regarding `Cc1cc(Cl)cc(-c2cccc([C@@H](O)C(=O)N3CCCc4nc(C5(c6ccccc6)CC5)[nH]c(=O)c4C3)c2)c1` [49-29], the pIC50 reads like this: under setting [1], > 7.30; under setting [2], > 8.00. For `O=C([C@H](O)c1cccc(-c2ccc(F)c(Cl)c2)c1)N1CCCc2nc(C3(c4ccccc4)CC3)[nH]c(=O)c2C1` [49-30] the same measures were > 7.30 and > 8.52.

Regarding `Cc1ccc(-c2cccc([C@@H](O)C(=O)N3CCCc4nc(C5(c6ccccc6)CC5)[nH]c(=O)c4C3)c2)cc1Cl` [49-31], the pIC50 is > 7.30 under setting [1] and > 8.52 under setting [2]. In the same order, the values of `O=C([C@H](O)c1cccc(-c2cc(C(F)(F)F)cc(C(F)(F)F)c2)c1)N1CCCc2nc(C3(c4ccccc4)CC3)[nH]c(=O)c2C1` [49-32] are > 7.30 and > 8.00. In the case of `O=C([C@H](O)c1cccc(-c2ccc(OC(F)(F)F)cc2)c1)N1CCCc2nc(C3(c4ccccc4)CC3)[nH]c(=O)c2C1` [49-33], the pIC50 by setting is: under setting [1], > 7.30; under setting [2], > 8.52. For `O=C([C@H](O)c1cccc(-c2cc(Cl)cc(OC(F)(F)F)c2)c1)N1CCCc2nc(C3(c4ccccc4)CC3)[nH]c(=O)c2C1` [49-34] the same measures were > 7.30 and > 8.00.

Regarding `O=C([C@H](O)c1cccc(-c2cc(Cl)cc(Cl)c2)c1)N1CCCc2nc(C3(c4ccccc4)CC3)[nH]c(=O)c2C1` [49-35], the pIC50 by setting is: under setting [1], > 7.30; under setting [2], > 8.00. In the same order, the values of `O=C([C@H](O)c1cccc(-c2cc(Cl)cc(C(F)(F)F)c2)c1)N1CCCc2nc(C3(c4ccccc4)CC3)[nH]c(=O)c2C1` [49-36] are > 7.30 and > 8.52. In the same order, the values of `O=C([C@H](O)c1cccc(-c2ccc(Cl)c(C(F)(F)F)c2)c1)N1CCCc2nc(C3(c4ccccc4)CC3)[nH]c(=O)c2C1` [49-37] are > 7.30 and > 8.00.
